Measured values taken from ChEMBL document CHEMBL1201862, “PubChem BioAssay data set” (2004).
Activity calls are given as the source filed them.

What was measured:
[1] = target: T1, Coagulation factor XII (Homo sapiens, UniProt P00748); assay type: functional;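 also: activated factor XIIa alpha cleaving a fluorogenic AMC peptide substrate; inhibitor potency from loss of enzyme activity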
T1 sequence (P00748 whole entry): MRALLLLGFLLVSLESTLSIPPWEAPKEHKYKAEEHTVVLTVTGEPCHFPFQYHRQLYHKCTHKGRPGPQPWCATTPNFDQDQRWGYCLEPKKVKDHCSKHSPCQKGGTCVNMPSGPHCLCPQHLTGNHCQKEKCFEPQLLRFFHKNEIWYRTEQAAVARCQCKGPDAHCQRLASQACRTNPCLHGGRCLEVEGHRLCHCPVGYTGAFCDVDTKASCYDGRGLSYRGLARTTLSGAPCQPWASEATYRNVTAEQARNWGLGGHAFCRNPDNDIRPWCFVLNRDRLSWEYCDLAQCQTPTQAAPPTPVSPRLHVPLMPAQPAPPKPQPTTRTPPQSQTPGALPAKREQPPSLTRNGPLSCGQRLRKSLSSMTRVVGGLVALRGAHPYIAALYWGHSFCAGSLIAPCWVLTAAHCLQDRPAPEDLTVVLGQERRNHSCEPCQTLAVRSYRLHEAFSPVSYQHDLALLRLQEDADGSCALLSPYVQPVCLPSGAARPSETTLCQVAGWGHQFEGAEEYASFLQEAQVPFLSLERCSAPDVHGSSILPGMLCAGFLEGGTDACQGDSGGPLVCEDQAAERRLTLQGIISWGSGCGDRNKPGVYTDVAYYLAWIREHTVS

[2] = test system: HEK293; test: NOD1 signaling inhibitors, primary screen, cell-based, luminescence, uHTS (AID 1578); assay type: functional; conditions: Homo sapiens
[3] = test system: BJ; test: cytotoxicity toward BJ-TERT fibroblasts, dose response, cell-based, RAS-independent, luminescence (AID 1933); assay type: functional; conditions: Homo sapiens
[4] = test system: HEK293; test: cells; assay type: functional, cell-based; conditions: Homo sapiens
[5] = test system: BJ; test: cells; assay type: functional, cell-based; conditions: Homo sapiens
[6] = test system: HEK293; test: cells; assay type: functional, cell-based; conditions: Homo sapiens; remark: listed apart in the source
[7] = target: Nucleotide-binding oligomerization domain-containing protein 2 (Homo sapiens, UniProt Q9HC29); test: NOD2 signaling inhibitors, cell-based, luminescence, uHTS, HEK293 (AID 1566); assay type: functional
Chain of Nucleotide-binding oligomerization domain-containing protein 2 (Q9HC29 whole entry, the tested form may be a part): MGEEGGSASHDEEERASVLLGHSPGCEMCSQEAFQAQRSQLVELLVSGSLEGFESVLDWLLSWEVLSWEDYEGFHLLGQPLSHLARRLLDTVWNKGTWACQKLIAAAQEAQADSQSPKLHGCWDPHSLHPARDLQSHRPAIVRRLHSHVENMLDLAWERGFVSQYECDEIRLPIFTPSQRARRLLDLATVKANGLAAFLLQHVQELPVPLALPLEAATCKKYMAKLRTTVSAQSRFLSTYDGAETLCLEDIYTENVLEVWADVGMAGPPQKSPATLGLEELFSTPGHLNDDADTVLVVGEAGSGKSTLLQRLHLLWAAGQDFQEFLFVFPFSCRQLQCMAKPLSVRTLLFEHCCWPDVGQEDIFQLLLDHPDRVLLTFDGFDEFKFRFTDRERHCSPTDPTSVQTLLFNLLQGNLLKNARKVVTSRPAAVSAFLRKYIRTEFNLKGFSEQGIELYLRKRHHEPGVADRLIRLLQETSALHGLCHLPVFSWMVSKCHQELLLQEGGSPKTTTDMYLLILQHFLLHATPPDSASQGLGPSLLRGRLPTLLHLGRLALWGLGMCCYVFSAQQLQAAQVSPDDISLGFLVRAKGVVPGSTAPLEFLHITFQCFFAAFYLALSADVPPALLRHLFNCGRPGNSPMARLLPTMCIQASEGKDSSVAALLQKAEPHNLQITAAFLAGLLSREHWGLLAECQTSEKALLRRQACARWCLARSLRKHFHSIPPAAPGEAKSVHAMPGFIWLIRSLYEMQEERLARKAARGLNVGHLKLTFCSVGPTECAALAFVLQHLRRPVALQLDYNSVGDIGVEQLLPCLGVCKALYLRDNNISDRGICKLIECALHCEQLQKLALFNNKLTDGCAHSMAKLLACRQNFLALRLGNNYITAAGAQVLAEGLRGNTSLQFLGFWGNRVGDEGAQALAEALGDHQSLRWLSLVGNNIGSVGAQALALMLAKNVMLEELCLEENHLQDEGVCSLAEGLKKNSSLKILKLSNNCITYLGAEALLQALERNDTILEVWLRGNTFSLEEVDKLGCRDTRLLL

[8] = test system: HEK293; test: NOD2 signaling inhibitors in MDP-stimulated cells, cell-based, uHTS, luminescence (AID 2001); assay type: functional; conditions: Homo sapiens
[9] = test system: HEK293; test: cells; assay type: functional, cell-based; conditions: Homo sapiens; remark: listed apart in the source
[10] = test system: BJ; test: cytotoxicity toward BJ-TERT-LT-ST fibroblasts, dose response, cell-based, RAS-independent, luminescence (AID 1935); assay type: functional; conditions: Homo sapiens;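 also: BJ fibroblasts immortalized with TERT plus LT and ST oncogenes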
[11] = cytotoxicity toward DRD oncogenic fibroblasts, dose response, cell-based, non-viral oncogenic, luminescence (AID 1934); assay type: functional; conditions: Homo sapiens
[12] = test system: INS1; test: beta cell apoptosis inhibitors, cytokine rescue, dose response, luminescence, retest (AID 449756); assay type: functional, cell-based; conditions: Rattus norvegicus;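 also: cell death triggered by IL-1 beta plus TNF-alpha plus IFN-gamma mixture; protective hits raise ATP signal compared with cytokine alone wells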
[13] = target: Glucose-6-phosphate 1-dehydrogenase (Homo sapiens, UniProt P11413); test: human G6PD enzyme inhibitors, dose response, selectivity assay for P. falciparum G6PD inhibitor project, biochemical, fluorescence (AID 504792); assay type: functional
Chain of Glucose-6-phosphate 1-dehydrogenase (P11413 whole entry): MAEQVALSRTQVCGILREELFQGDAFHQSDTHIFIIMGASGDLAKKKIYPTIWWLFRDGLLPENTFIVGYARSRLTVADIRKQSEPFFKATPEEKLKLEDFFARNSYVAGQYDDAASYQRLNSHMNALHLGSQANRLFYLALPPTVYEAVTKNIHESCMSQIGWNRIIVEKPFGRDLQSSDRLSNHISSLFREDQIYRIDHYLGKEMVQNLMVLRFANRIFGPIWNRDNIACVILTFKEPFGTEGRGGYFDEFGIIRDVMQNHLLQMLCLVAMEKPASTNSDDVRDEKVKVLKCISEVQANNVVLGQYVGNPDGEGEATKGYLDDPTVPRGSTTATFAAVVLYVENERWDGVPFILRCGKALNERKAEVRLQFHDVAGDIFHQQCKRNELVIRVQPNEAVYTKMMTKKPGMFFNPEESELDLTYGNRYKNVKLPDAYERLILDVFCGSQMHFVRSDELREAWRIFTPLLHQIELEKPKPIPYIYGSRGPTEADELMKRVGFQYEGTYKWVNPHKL

[14] = target: T2, Short transient receptor potential channel 4 (Mus musculus, UniProt Q9QUQ5); test: mouse TRPC4 channel activators, dose response, cell-based, HEK293 TRPC4/mu-opioid, Fluo-4 calcium (AID 434937); assay type: functional
T2 sequence (Q9QUQ5 whole entry): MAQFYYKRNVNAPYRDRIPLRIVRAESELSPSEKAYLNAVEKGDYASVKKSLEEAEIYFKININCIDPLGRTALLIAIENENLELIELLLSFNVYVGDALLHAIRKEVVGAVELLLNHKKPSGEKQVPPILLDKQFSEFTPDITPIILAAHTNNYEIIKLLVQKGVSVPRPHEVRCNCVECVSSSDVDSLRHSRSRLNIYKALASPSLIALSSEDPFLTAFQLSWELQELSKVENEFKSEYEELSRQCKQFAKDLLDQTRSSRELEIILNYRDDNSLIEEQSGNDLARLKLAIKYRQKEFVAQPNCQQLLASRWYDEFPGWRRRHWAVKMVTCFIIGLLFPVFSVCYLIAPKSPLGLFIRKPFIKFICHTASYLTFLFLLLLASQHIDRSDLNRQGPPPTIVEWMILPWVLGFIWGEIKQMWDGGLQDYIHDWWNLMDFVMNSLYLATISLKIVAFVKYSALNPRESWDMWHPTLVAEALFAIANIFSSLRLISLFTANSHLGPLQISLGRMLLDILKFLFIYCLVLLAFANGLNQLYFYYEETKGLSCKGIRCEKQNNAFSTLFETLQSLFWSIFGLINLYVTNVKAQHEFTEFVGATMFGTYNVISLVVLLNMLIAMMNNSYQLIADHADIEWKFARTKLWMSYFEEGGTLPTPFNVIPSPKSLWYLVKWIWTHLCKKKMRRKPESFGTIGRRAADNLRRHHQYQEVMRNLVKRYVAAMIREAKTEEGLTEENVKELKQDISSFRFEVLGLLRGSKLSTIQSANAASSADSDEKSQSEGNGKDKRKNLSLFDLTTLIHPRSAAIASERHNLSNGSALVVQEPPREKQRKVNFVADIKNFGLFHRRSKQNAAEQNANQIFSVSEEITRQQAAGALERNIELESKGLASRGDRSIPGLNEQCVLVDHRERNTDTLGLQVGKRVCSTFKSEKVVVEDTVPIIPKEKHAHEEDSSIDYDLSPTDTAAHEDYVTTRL

[15] = target: Trypsin (Sus scrofa, UniProt P00761); test: porcine trypsin inhibitors, dose response, selectivity assay for Rce1 protease inhibitor project, biochemical, quenched peptide fluorescence, cherry-pick (AID 488789)
Chain of Trypsin (P00761 whole entry): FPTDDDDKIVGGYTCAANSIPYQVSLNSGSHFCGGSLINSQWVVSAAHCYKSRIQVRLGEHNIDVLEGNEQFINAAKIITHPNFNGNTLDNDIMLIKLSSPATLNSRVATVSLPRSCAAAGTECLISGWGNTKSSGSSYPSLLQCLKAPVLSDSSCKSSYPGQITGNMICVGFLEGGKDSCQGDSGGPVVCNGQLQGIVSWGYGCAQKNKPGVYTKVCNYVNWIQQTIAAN

[16] = target: T3, CAAX prenyl protease 2 (Saccharomyces cerevisiae S288c, UniProt Q03530); assay type: biochemical
T3 sequence (Q03530 whole entry): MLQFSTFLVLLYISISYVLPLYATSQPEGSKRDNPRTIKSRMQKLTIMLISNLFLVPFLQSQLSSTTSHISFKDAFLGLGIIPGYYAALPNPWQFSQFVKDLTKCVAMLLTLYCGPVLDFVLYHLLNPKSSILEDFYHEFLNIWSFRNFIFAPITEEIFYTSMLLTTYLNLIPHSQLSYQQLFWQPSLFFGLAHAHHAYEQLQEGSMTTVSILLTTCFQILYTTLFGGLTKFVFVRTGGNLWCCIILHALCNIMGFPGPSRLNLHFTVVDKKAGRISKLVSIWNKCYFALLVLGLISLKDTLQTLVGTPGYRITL

[17] = target: T4, CAAX prenyl protease 2 (Homo sapiens, UniProt Q9Y256); test: human Rce1 protease inhibitors, dose response, biochemical, yeast membranes, quenched-peptide fluorescence, cherry-pick (AID 588849)
T4 sequence (Q9Y256 whole entry): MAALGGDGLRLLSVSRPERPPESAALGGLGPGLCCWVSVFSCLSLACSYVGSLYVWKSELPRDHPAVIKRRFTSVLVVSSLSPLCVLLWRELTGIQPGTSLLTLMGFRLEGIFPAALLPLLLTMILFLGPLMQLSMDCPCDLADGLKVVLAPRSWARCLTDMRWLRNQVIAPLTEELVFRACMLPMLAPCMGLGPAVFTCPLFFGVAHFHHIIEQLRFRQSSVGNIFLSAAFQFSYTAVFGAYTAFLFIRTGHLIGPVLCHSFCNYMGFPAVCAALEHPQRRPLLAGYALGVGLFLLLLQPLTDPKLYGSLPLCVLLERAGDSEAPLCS

[18] = Luminescence Cell-Based Dose Response HTS to Identify Activators of Luciferase Translation or Activity in H4 […] Cells. [Related pubchem assays: 1829 (Project Summary), 1814 (Primary HTS)]; assay type: functional
[19] = test system: H4; test: Luminescence Cell-Based Dose Response HTS to Identify Activators of 5'UTR Stem-Loop Driven Prion Protein mRNA Translation in H4 Neuroglioblastoma Cells. [Related pubchem assays: 1829 (Project Summary), 1814 (Primary HTS)]; assay type: functional; conditions: Homo sapiens
[20] = test system: HeLa; test: HeLa cell cytotoxicity, dose response, cytotoxicity control for MITF activator project, CellTiter-Glo luminescence, cherry-pick samples (AID 540259); assay type: functional, cell-based; conditions: Homo sapiens
[21] = target: Tumor necrosis factor (Homo sapiens, UniProt P01375); test: TNFa-triggered NF-kB activation inhibitors, SAR follow-up, cell-based, revised (AID 2337); assay type: functional
Chain of Tumor necrosis factor (P01375 whole entry, the tested form may be a part): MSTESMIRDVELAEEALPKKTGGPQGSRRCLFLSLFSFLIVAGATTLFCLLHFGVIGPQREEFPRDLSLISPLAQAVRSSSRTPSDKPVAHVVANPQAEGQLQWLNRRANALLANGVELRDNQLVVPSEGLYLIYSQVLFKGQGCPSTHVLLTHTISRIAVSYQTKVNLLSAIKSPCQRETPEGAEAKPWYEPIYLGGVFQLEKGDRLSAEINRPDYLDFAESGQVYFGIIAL

[22] = target: T5, Nucleotide-binding oligomerization domain-containing protein 1 (Homo sapiens, UniProt Q9Y239); test: NOD1 signaling inhibitors, SAR follow-up, revised (AID 2333); assay type: functional
T5 sequence (Q9Y239 whole entry): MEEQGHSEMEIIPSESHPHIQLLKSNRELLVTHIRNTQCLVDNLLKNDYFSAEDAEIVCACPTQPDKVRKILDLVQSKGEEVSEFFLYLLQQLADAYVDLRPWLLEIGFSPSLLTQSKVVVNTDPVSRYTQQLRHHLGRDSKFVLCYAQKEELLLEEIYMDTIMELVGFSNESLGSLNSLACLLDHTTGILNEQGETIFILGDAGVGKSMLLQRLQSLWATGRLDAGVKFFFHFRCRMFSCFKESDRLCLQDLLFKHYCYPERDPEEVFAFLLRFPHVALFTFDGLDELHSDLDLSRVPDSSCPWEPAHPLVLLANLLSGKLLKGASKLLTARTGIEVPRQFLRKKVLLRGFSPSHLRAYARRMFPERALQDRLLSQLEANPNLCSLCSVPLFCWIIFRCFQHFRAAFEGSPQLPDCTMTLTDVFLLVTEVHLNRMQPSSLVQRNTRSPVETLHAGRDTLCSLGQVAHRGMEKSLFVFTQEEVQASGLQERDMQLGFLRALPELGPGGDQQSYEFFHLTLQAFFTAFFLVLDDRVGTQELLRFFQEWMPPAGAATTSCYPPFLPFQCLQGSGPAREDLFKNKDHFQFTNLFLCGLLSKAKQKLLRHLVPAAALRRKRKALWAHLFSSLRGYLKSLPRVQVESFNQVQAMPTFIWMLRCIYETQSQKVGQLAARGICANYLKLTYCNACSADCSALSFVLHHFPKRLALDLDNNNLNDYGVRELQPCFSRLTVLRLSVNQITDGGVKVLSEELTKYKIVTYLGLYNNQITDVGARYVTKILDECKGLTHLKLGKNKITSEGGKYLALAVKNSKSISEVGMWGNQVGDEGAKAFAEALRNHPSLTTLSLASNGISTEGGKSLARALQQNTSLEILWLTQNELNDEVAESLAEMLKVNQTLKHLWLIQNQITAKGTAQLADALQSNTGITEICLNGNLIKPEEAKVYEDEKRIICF

[23] = cytotoxicity in HEK-293T cells, dose response, cytotoxicity control for TCR NF-kB inhibitor project, luminescence, T-cell screen hits (AID 489026); assay type: functional, cell-based;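 also: cells exposed to compound about 14 hours before the viability readout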
[24] = test system: HEK293; test: cells; conditions: Homo sapiens

C=CCn1c(SCC(=O)Nc2cccnc2Cl)nnc1-c1ccc(Cl)cc1
IC50 [1]: > 50 µM (inactive)

COc1cc(/C=C2\CC(C(C)(C)C)C/C(=C\c3cc(OC)c(OC)c(OC)c3)C2=O)cc(OC)c1OC (stereo not given)
EC50 [2]: 5.25 µM (active)
EC50 [3]: 4.94 µM (active)
IC50 [4]: 4.76 µM (active)
EC50 [5]: 12 µM (inconclusive)
IC50 [6]: 18.3 µM (active)
EC50 [7]: 8.66 µM (active)
IC50 [8]: 4.98 µM (active)
IC50 [9]: > 20 µM (inactive)
EC50 [10]: 5.18 µM (inconclusive)
EC50 [11]: 4.23 µM (active)
AC50 [12]: 5.52 µM (active)

Cc1cccc(C(=O)Nc2nnc(S(=O)(=O)N3CCCCCC3)s2)c1
IC50 [13]: > 80 µM (inactive)

CCc1cc(OCCN(C)C)ccc1Cl
EC50 [14]: 0.267 µM (active)

CC(C)OCCCNC(=O)c1c(N)n(CC2CCCO2)c2nc3ccccc3nc12 (stereo not given)
AC50 [15]: 5.99 µM (active)
AC50 [16]: 15 µM (active)
AC50 [17]: 9.35 µM (active)

CC(=O)Nc1ccc(S(=O)(=O)NCCNc2ccccc2[N+](=O)[O-])cc1
IC50 [1]: > 50 µM (inactive)

Cc1ncc(CN2CCCC(C(=O)c3ccc(C(C)(C)C)cc3)C2)s1 (stereo not given)
IC50 [1]: > 50 µM (inactive)

c1ccc(CSc2ccc(-c3ccc4c(c3)OCO4)nn2)cc1
EC50 [18]: 4.69 µM (active)
EC50 [19]: > 120 µM (not active)
AC50 [20]: 112 µM (active)

Cc1cccn2c(CNCCc3ccccn3)c(C(=O)N3CCOCC3)nc12
EC50 [14]: 1.68 µM (active)

Oc1ccc(-c2nccc(-c3ccccn3)n2)cc1
AC50 [20]: 55.2 µM (active)

O=C(COc1ccc2c(-c3ccccc3)cc(=O)oc2c1)Nc1cccnc1
EC50 [2]: 0.75 µM (active)
IC50 [4]: 2.21 µM (active)
IC50 [6]: 18.7 µM (active)
EC50 [7]: > 20 µM (inactive)
IC50 [8]: 10.8 µM (inactive)
IC50 [9]: > 20 µM (inactive)
IC50 [21]: 4.59 µM (active)
IC50 [22]: 3.17 µM (active)
IC50 [23]: > 80 µM (inactive)
IC50 [24]: > 20 µM (inactive)

C=CCOc1c(Cl)cc(CNc2ccc(N(C)C)cc2)cc1OC
IC50 [13]: > 80 µM (inactive)

CCn1c(CN2CCN(Cc3ccc(C)cc3)C(CCO)C2)nc2ccccc21 (stereo not given)
EC50 [14]: 0.668 µM (active)

O=C(/C=C/c1cn(-c2ccccc2)nc1-c1cccs1)NCCN1CCOCC1
AC50 [16]: 10.8 µM (active)
AC50 [17]: > 100 µM (inactive)

CC(=O)c1ccc(N2Cc3ccccc3/C2=N\C(=O)c2cccs2)cc1
AC50 [20]: 76.6 µM (active)

CCn1cc(CN2CCCC(C(=O)Nc3ccc(-c4nc5ccccc5[nH]4)cc3)C2)c(C)n1 (stereo not given)
EC50 [14]: 0.267 µM (active)
